Molecular target: T1, mouse Tas2r105 (Mus musculus, UniProt Q9JKT4)
T1 construct: expressed in transfected cells; host or cells: HEK293T-Gα16gust44
T1 sequence (Q9JKT4 1-300): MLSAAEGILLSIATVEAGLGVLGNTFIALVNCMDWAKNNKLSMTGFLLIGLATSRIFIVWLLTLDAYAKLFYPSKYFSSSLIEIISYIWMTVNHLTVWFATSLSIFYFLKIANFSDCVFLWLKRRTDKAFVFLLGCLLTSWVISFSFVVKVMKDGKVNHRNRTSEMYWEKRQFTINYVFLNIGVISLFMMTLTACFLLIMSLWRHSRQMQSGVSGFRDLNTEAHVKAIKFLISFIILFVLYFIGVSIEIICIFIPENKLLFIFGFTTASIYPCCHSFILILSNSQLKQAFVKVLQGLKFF
Assay: Calcium imaging assay (FLIPR), HEK293T-Gα16gust44 cells transfected with mouse Tas2r105
Assay type: cell-based
Procedure: This set of bile acids was chosen because of their commercial availability in high purities, their diversity within the class of bile acids and their previous detection and quantitation in human blood. Stock solutions were prepared in DMSO.
As basal growth medium for the HEK293T-Gα16gust44 cell line[17],[59] served Dulbecco’s modified eagle medium (DMEM) (Thermo Fisher Scientific, Darmstadt, Germany) supplemented with 10 % fetal bovine serum (Sigma-Aldrich, Steinheim, Germany), 2 mM L-glutamine (Sigma-Aldrich, Steinheim, Germany), 100 units/ml penicillin (Sigma Aldrich, Steinheim, Germany) and 100 µg/ml streptomycin (Sigma Aldrich, Steinheim, Germany). Growth conditions were 37 °C, 5 % CO2 and saturated air-humidity[60].
HEK293T-Gα16gust44 cells were seeded on poly-D-lysine (10 µg/ml) coated 96-well plates to reach a confluence of 40-60 % the next day. For transient transfection 150 ng of plasmid DNA containing the receptor of interest and 0.3 µl lipofectamine 2000 (Thermo Fisher Scientific, Darmstadt, Germany) per well were used and transfection took place according to the manual of lipofectamine 2000. […] The empty vector DNA (mock) was transfected as negative control[14],[41].
Cells were loaded using the calcium-sensitive fluorescent dye Fluo-4-AM (Abcam, Cambridge, Great Britain) in the presence of 2.5 mM probenecid (Sigma-Aldrich, Steinheim, Germany) the day after transfection[13],[41]. 1 h after loading, cells were washed with C1 buffer using a BioTek Cell Washer, incubated in the dark for half an hour and washed again. For automated agonist application and measurement of fluorescence changes, a FLIPR^TETRA device (Molecular Devices, San José, United States) was used. Viability of cells was tested by application of 100 nM Somatostatin 14 (Bachem, Bubendorf, Switzerland)[42].
Measured data were negative control corrected by subtracting the signal of the mock-transfected cells and exported to Microsoft Excel using the FLIPR software ScreenWorks 4.2. In Microsoft Excel software, standardization of maximum fluorescence intensities to the basal fluorescence and normalization to the buffer-only control was done to calculate the relative fluorescence changes (ΔF/F).
Initial screening experiments performed in duplicate wells were confirmed by at least one replication and representative traces were selected for display. All dose-response relationships were determined by three independent experiments (biological replicates) performed in duplicates (technical replicates). Threshold concentrations, defined as lowest substance concentrations leading to statistically significant elevated fluorescence changes in receptor-transfected cells compared with empty vector-transfected cells, were determined using SigmaPlot with Student’s t-test to evaluate statistical significance (p < 0.01).

C[C@H](CCC(=O)O)[C@H]1CC[C@H]2[C@@H]3[C@H](O)C[C@@H]4C[C@H](O)CC[C@]4(C)[C@H]3C[C@H](O)[C@]12C [Cholic Acid, cholic acid] gave an RLU (Time 0 s) of 0 RLU, an RLU (Time 2 s) of 1.777 RLU and an RLU (Time 4 s) of 7.834 RLU. It also gave an RLU (Time 6 s) of 2.675 RLU, an RLU (Time 8 s) of 9.829 RLU and an RLU (Time 12 s) of -3.285 RLU. For the same molecule, the RLU (Time 14 s) was -7.0734 RLU, the RLU (Time 16 s) was 15 RLU and the RLU (Time 18 s) was 44.4226 RLU. It also gave an RLU (Time 18.781 s) of 21.6772 RLU, an RLU (Time 20.781 s) of 9.429 RLU and an RLU (Time 22.781 s) of 39.5966 RLU. For the same molecule, the RLU (Time 24.781 s) was 10.8272 RLU, the RLU (Time 26.781 s) was 50.2337 RLU and the RLU (Time 28.781 s) was 59.2009 RLU. It also gave an RLU (Time 30.781 s) of 49.6279 RLU, an RLU (Time 32.781 s) of 86.2126 RLU and an RLU (Time 34.781 s) of 65.8416 RLU. It also gave an RLU (Time 36.781 s) of 100.025 RLU, an RLU (Time 38.781 s) of 89.1237 RLU and an RLU (Time 40.781 s) of 115.541 RLU. For the same molecule, the RLU (Time 42.781 s) was 131.095 RLU, the RLU (Time 44.781 s) was 139.548 RLU and the RLU (Time 46.781 s) was 164.231 RLU. The RLU (Time 48.781 s) was 193.51 RLU, the RLU (Time 50.781 s) was 193.303 RLU and the RLU (Time 52.781 s) was 217.91 RLU. It also gave an RLU (Time 54.781 s) of 257.63 RLU, an RLU (Time 56.781 s) of 273.677 RLU and an RLU (Time 58.781 s) of 284.724 RLU. The RLU (Time 60.781 s) was 322.244 RLU, the RLU (Time 62.781 s) was 314.427 RLU and the RLU (Time 64.781 s) was 342.91 RLU. The RLU (Time 66.781 s) was 375.793 RLU, the RLU (Time 68.781 s) was 398.01 RLU and the RLU (Time 70.781 s) was 424.457 RLU. For the same molecule, the RLU (Time 72.781 s) was 449.971 RLU, the RLU (Time 74.781 s) was 470.44 RLU and the RLU (Time 76.781 s) was 487.87 RLU. It also gave an RLU (Time 78.781 s) of 480.774 RLU, an RLU (Time 80.781 s) of 513.812 RLU and an RLU (Time 82.781 s) of 513.576 RLU. It also gave an RLU (Time 84.781 s) of 531.991 RLU, an RLU (Time 86.781 s) of 549.947 RLU and an RLU (Time 88.781 s) of 553.294 RLU. For the same molecule, the RLU (Time 90.781 s) was 575.612 RLU, the RLU (Time 92.781 s) was 557.955 RLU and the RLU (Time 94.781 s) was 575.485 RLU. It also gave an RLU (Time 96.781 s) of 548.118 RLU, an RLU (Time 98.781 s) of 585.897 RLU and an RLU (Time 100.781 s) of 576.152 RLU. The RLU (Time 102.781 s) was 586.681 RLU, the RLU (Time 104.781 s) was 569.701 RLU and the RLU (Time 106.781 s) was 551.409 RLU. For the same molecule, the RLU (Time 108.781 s) was 564.279 RLU, the RLU (Time 110.781 s) was 542.028 RLU and the RLU (Time 112.781 s) was 544.652 RLU. It also gave an RLU (Time 114.781 s) of 548.979 RLU, an RLU (Time 116.781 s) of 550.607 RLU and an RLU (Time 118.781 s) of 555.391 RLU. For the same molecule, the RLU (Time 120.781 s) was 575.811 RLU, the RLU (Time 122.781 s) was 538.707 RLU and the RLU (Time 124.781 s) was 581.753 RLU. It also gave an RLU (Time 126.781 s) of 520.313 RLU, an RLU (Time 128.781 s) of 519.484 RLU and an RLU (Time 130.781 s) of 535.938 RLU. For the same molecule, the RLU (Time 132.781 s) was 507.19 RLU, the RLU (Time 134.781 s) was 533.269 RLU and the RLU (Time 136.781 s) was 500.116 RLU. It also gave an RLU (Time 137.578 s) of 523.788 RLU, an RLU (Time 143.578 s) of 484.404 RLU and an RLU (Time 149.578 s) of 476.256 RLU. It also gave an RLU (Time 155.578 s) of 501.067 RLU, an RLU (Time 161.578 s) of 504.009 RLU and an RLU (Time 167.578 s) of 489.395 RLU. It also gave an RLU (Time 173.578 s) of 450.925 RLU, an RLU (Time 179.578 s) of 464.442 RLU and an RLU (Time 185.578 s) of 417.045 RLU. For the same molecule, the RLU (Time 191.578 s) was 421.394 RLU, the RLU (Time 197.578 s) was 391.24 RLU and the RLU (Time 203.578 s) was 344.694 RLU. For the same molecule, the RLU (Time 209.578 s) was 358.293 RLU, the RLU (Time 215.578 s) was 343.137 RLU and the RLU (Time 221.578 s) was 329.589 RLU. For the same molecule, the RLU (Time 227.578 s) was 339.83 RLU, the RLU (Time 233.578 s) was 325.692 RLU and the RLU (Time 239.578 s) was 315.743 RLU. For the same molecule, the RLU (Time 245.578 s) was 313.71 RLU, the RLU (Time 293.578 s) was 197.324 RLU and the RLU (Time 299.578 s) was 152.865 RLU. The RLU (Time 305.578 s) was 156.643 RLU, the RLU (Time 311.578 s) was 134.046 RLU and the RLU (Time 317.578 s) was 124.601 RLU. The RLU (Time 323.578 s) was 131.88 RLU, the RLU (Time 329.578 s) was 133.734 RLU and the RLU (Time 335.578 s) was 174.038 RLU. It also gave an RLU (Time 341.578 s) of 165.309 RLU, an RLU (Time 347.578 s) of 173.556 RLU and an RLU (Time 353.578 s) of 191.675 RLU. For the same molecule, the RLU (Time 359.578 s) was 226.638 RLU and the “Activation threshold concentration Tas2r105” value (p < 0.01 vs empty vector) was 300 µM.

— article PMC10247784, “Physiological activation of human and mouse bitter taste receptors by bile acids” (Communications Biology, 2023)
